The values below come from patent US12371426B2, “Pyridazine derivatives as SMARCA2/4 degraders” (Aurigene Discovery Technologies Limited, priority 2018, dated 2025).

Common to all, as to format: cell-based
The subject of one assay is NCI-H929 cells. Briefly: Anti proliferative activity in NCI-H929 cell line by Cell Titer Glo assay. The note with it: Homo sapiens, 72 h, 3 days compound incubation, CellTiter Glo, read-out: Anti-proliferative activity IC50 group (NCI-H929 cells). Here is the method:
Determination of Anti Proliferative Activity of Compounds in NCI-H929 and NCI-H838 Cell Lines by Cell Titer Glo® (promega) assay:
NCI-H929 (ATCC CRL-9068) or NCI-H838 (ATCC CRL-5844) cells were seeded in 96 well plate flat black clear bottom plates (Corning, Cat. No 3904) using complete RPMI-1640 media. Next day, compounds listed in the present invention were added to cells from 10 mM stocks made in DMSO (Sigma Cat no. D2650). Each concentration of compound was tested in triplicate with DMSO concentration at a final percentage not exceeding 0.3 in the cells. After the compound incubation (3 days for H929 and 8 days for H838) assay was terminated using 50 μl of CellTiter Glo® reagent (Promega, Cat. no G7572). CellTiter Glo® Luminescent reagent determines the number of viable cells based on quantitation of ATP present which is an indicator of cell number and metabolic activity. Luminescence readings were taken in Victor-3 instrument. Percent inhibition of proliferation was calculated using formula, % inhibition=100−(luminescence value of test/luminescence value of DMSO control)*100. DMSO control (0%)=Cells in complete media with DMSO; blank=Media alone containing DMSO. IC50 was calculated using graph pad prism software.
Herein group “A” refers to IC50 value lower than 1 μM, “B” refers to IC50 value between 1-10 μM (both inclusive) and “C” refers to IC50 value higher than 10 μM or less than 50% activity at 10 μM.
(In general: Cellular ATP, detected with luciferase, serves as a proxy for viable cell number.)

The next assay deals with T1, SMARCA4 (Homo sapiens, UniProt P51532).
T1 construct: endogenous in cells; host or cells: NCI-H929 (ATCC CRL-9068)
T1 sequence (P51532 whole entry): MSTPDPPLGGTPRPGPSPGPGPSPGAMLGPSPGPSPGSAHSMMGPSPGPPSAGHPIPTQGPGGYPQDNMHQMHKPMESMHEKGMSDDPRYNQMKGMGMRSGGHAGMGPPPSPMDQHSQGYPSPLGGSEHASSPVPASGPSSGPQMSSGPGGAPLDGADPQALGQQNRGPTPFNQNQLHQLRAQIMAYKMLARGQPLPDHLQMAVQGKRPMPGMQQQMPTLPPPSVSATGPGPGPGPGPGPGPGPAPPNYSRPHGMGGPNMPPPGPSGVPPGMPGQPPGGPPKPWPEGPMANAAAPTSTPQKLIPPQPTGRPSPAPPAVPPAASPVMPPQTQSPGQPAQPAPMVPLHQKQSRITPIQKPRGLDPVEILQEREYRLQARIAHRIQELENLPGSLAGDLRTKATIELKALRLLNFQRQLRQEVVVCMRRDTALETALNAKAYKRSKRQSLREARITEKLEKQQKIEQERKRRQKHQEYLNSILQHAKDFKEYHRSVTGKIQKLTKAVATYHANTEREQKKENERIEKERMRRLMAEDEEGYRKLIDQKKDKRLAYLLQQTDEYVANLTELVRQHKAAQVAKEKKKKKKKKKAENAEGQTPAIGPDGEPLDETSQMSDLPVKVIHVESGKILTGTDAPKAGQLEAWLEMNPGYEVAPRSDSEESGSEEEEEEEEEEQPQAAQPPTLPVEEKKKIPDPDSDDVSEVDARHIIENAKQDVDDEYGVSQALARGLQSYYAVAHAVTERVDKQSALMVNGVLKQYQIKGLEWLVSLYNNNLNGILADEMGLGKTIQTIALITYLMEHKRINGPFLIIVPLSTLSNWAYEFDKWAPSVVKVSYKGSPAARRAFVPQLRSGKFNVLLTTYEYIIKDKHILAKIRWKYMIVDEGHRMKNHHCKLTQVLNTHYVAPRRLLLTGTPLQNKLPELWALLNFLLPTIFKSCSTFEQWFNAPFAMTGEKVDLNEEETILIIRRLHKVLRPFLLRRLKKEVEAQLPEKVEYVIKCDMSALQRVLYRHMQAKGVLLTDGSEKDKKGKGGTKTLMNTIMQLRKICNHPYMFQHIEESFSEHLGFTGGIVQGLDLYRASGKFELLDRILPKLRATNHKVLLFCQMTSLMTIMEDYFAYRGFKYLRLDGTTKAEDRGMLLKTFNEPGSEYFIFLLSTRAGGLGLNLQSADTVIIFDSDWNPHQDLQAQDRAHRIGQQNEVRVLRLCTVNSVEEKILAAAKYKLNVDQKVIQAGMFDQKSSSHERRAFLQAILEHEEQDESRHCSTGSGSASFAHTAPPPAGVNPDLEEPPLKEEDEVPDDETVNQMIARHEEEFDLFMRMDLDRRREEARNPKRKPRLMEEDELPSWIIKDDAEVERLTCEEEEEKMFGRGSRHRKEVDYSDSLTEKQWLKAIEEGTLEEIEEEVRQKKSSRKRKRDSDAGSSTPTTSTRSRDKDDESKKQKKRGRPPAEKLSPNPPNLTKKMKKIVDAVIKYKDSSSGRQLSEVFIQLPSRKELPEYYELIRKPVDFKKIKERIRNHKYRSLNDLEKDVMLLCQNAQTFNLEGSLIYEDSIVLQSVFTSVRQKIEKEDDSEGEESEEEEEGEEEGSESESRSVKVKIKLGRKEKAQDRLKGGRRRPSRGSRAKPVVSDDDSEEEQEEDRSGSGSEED
Briefly: SMARCA4 degradation in H929 cells by Western blot. To be noted: 16 hours; for SMARCA4 percent degradation at 0.1 µM: NCI-H929, 100 nM. As for the experimental part:
(§1) Determination of SMARCA2 and SMARCA4 Degradation in H929 Cells by Western Blot:
(§2) NCI-H929 (ATCC CRL-9068) was plated in 6 well plates using complete RPMI-1640 media. Next day, compounds of present invention were added to cells from 10 mM stocks made in DMSO (Sigma Cat no. D2650). Each concentration of compound was tested with DMSO not exceeding final percentage of 0.3 in the cells. Cells were incubated with the compound for 16 hours followed by harvesting with 1× RIPA lysis buffer (Thermo Fischer, catalogue number #89900) containing protease inhibitor cocktail (Sigma catalogue number #P-8340). Equal amount of protein was loaded on SDS PAGE gel for electrophoresis. Western blot was carried out for detection of either SMARCA2 (Cell signaling technologies, catalogue number #11966) or SMARCA4 antibody (Cell signaling technologies, catalogue number #49360). Beta Actin (Santa Cruz, catalogue number #69879) was used as loading control. Percentage of SMARCA2 or SMARCA4 degradation was calculated using formula % Degradation=100−(normalized band intensity in treated sample/normalized band intensity in DMSO sample)*100.
(§3) Selected compounds of the present invention were screened in the above mentioned assay procedures for determination of % SMARCA2 and SMARCA4 degradation 100 nM and the results are summarized in below table 30.

The next assay addresses SMARCA2 (Homo sapiens, UniProt P51531). Kind of assay: SMARCA2 degradation in H929 cells by Western blot. The note with it: 16 hours. More on the design: endogenous in cells. Here is the method: as §1, §2, §3
On the technique in general: In western blotting, separated proteins are transferred to a membrane and probed.

The structures appear in SMILES notation. Where only a bound is given, the exact number is not on record here.

Chain of SMARCA2 (P51531 whole entry): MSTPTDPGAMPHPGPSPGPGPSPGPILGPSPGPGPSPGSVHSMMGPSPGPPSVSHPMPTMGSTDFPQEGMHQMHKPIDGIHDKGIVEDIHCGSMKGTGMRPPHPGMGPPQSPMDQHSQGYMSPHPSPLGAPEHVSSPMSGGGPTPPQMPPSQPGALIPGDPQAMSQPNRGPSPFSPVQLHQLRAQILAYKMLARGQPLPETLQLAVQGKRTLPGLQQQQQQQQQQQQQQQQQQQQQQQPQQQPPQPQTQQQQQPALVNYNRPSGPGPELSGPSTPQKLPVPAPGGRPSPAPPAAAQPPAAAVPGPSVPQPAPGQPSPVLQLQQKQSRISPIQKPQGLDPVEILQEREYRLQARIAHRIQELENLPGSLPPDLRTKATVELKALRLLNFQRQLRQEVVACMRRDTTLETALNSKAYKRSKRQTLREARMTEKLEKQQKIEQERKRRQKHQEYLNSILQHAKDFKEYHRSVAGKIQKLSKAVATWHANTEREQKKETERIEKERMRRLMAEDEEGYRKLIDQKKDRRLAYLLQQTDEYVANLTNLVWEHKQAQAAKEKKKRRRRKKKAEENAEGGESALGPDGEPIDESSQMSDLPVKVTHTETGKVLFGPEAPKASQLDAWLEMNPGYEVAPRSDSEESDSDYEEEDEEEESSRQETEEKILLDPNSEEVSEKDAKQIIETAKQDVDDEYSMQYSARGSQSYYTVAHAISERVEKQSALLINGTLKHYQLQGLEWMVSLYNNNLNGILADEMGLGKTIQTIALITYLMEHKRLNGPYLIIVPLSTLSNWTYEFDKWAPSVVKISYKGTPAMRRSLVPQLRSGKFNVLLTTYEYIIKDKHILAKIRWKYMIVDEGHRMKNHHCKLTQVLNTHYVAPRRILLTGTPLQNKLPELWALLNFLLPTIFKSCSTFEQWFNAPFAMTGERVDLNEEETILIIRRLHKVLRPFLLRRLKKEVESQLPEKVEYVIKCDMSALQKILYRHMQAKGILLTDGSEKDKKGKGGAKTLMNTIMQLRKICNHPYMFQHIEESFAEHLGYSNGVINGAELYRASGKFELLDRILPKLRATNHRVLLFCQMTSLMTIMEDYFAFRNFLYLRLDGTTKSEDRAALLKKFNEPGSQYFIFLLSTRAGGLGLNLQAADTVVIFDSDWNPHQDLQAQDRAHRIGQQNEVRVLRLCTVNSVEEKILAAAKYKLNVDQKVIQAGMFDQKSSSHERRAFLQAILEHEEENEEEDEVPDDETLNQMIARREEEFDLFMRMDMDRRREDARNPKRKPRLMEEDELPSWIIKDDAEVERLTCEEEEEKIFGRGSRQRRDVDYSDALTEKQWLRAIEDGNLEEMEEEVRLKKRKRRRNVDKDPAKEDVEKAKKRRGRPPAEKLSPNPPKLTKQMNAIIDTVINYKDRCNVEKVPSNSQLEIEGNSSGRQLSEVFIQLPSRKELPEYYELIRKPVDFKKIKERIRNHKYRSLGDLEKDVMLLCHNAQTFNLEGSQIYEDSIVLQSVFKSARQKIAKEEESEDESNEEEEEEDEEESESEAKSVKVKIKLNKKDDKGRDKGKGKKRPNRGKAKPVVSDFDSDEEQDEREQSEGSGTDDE

What is called IC50 is the concentration that gives 50% inhibition. Turning to `CO[C@@H]1C[C@@H](C(=O)N[C@@H](C)c2ccc(-c3scnc3C)cc2)N(C(=O)[C@@H](NC(=O)CN2CCN(c3cc(-c4ccccc4O)nnc3N)CC2)C(C)(C)C)C1` [Compound 117], the IC50 in the assay on NCI-H929 cells was 1 to 10 µM. Besides, the SMARCA4 percent degradation at 0.1 µM on SMARCA4 was 47%. Also, the “SMARCA2 Percent degradation @ 100 nM” value at SMARCA2 stood at 45.4%.

In the case of `Nc1nnc(-c2ccccc2O)cc1N1CCN(CC(=O)Nc2cccc3c2C(=O)N(C2CCC(=O)NC2=O)C3=O)CC1` (centres unmarked) [Compound 41], the SMARCA4 percent degradation at 0.1 µM at SMARCA4 was 60%. The “SMARCA2 Percent degradation @ 100 nM” value at SMARCA2 is given as 64%.

For the molecule `CC(=O)O[C@@H]1C[C@@H](C(=O)NCc2ccc(-c3scnc3C)cc2)N(C(=O)[C@@H](NC(=O)CN2CCN(c3cc(-c4ccccc4O)nnc3N)CC2)C(C)(C)C)C1` [Compound 48, (3R,5S)-1-((S)-2-(2-(4-(3-amino-6-(2-hydroxyphenyl)pyridazin-4-yl)piperazin-1-yl)acetamido)-3,3-dimethylbutanoyl)-5-((4-(4-methylthiazol-5-yl)benzyl)carbamoyl)pyrrolidin-3-yl acetate], the “SMARCA4 Percent degradation @ 100 nM” value at SMARCA4 was 28%. On SMARCA2, the “SMARCA2 Percent degradation @ 100 nM” value stood at 5.4%.

`Cc1ncsc1-c1ccc([C@H](C)NC(=O)[C@@H]2C[C@@H](O)CN2C(=O)[C@@H](NC(=O)C(C)N2CCN(c3cc(-c4ccccc4O)nnc3N)CC2)C(C)(C)C)cc1` (single isomer, unassigned) [Compound 57]: in the assay on NCI-H929 cells, the half-maximal inhibitory concentration (IC50) is under 1 µM. Further, the “SMARCA2 Percent degradation @ 100 nM” value on SMARCA2 came out at 79.6%.

For `Cc1ncsc1-c1ccc([C@H](C)NC(=O)[C@@H]2C[C@@H](O)CN2C(=O)[C@@H](NC(=O)CN2CCN(c3cc(-c4ccccc4F)nnc3N)CC2)C(C)(C)C)cc1` [Compound 44], the IC50 with NCI-H929 cells is 1 to 10 µM. Moreover, at SMARCA4, the SMARCA4 percent degradation at 0.1 µM stood at 82%. Also, the “SMARCA2 Percent degradation @ 100 nM” value at SMARCA2 is 93%.

With `Cc1ncsc1-c1ccc([C@H](C)NC(=O)[C@@H]2C[C@@H](O)CN2C(=O)[C@@H](NC(=O)CC2CCN(c3cc(-c4cccc(F)c4O)nnc3N)CC2)C(C)(C)C)cc1` [Compound 98], the half-maximal inhibitory concentration (IC50) with NCI-H929 cells was under 1 µM. The SMARCA4 percent degradation at 0.1 µM at SMARCA4 was 99%. In addition, the “SMARCA2 Percent degradation @ 100 nM” value on SMARCA2 was 88%.

As to `Cc1ncsc1-c1ccc([C@H](C)NC(=O)[C@@H]2C[C@@H](O)CN2C(=O)[C@H](C)NC(=O)CN2CCN(c3cc(-c4ccccc4O)nnc3N)CC2)cc1` [Compound 118], the 50% inhibitory concentration (IC50) in the assay with NCI-H929 cells is over 10 µM. Also, the “SMARCA2 Percent degradation @ 100 nM” value on SMARCA2 stood at 20.2%.

The molecule `Cc1ncsc1-c1ccc(C(NC(=O)[C@@H]2C[C@@H](O)CN2C(=O)[C@@H](NC(=O)CC2CCN(c3cc(-c4cccc(F)c4O)nnc3N)CC2)C(C)(C)C)C(F)(F)F)cc1` (stereo partly drawn) [Compound 76, (2S,4R)-1-((S)-2-(2-(1-(3-amino-6-(3-fluoro-2-hydroxyphenyl)pyridazin-4-yl)piperidin-4-yl)acetamido)-3,3-dimethylbutanoyl)-4-hydroxy-N-(2,2,2-trifluoro-1-(4-(4-methylthiazol-5-yl)phenyl)ethyl)pyrrolidine-2-carboxamide] returned an SMARCA4 percent degradation at 0.1 µM on SMARCA4 of 12%. Further, the “SMARCA2 Percent degradation @ 100 nM” value at SMARCA2 is on record as 90%.

Turning to `Cc1ncsc1-c1ccc([C@H](C)NC(=O)[C@@H]2C[C@@H](O)CN2C(=O)[C@@H](NC(=O)CCCCCCCCCC(=O)N2CCN(c3cc(-c4ccccc4O)nnc3N)CC2)C(C)(C)C)cc1` [Compound 38], the IC50 in the assay with NCI-H929 cells lay in the range of 1 to 10 µM. Besides, the SMARCA4 percent degradation at 0.1 µM at SMARCA4 amounted to 17%. Further, the “SMARCA2 Percent degradation @ 100 nM” value at SMARCA2 was 99%.

Take `Cc1ncsc1-c1ccc([C@H](C)NC(=O)[C@@H]2C[C@@H](O)CN2C(=O)[C@@H](NC(=O)CN2CCN(c3cc(-c4ccccc4O)nnc3N)CC2)C(C)C)cc1` [Compound 79, (2S,4R)-1-((2-(4-(3-amino-6-(2-hydroxyphenyl)pyridazin-4-yl)piperazin-1-yl)acetyl)-L-valyl)-4-hydroxy-N—((S)-1-(4-(4-methylthiazol-5-yl)phenyl)ethyl)pyrrolidine-2-carboxamide]: the concentration for half-maximal inhibition (IC50) with NCI-H929 cells was under 1 µM. Also, the SMARCA4 percent degradation at 0.1 µM on SMARCA4 was determined as 99%. The “SMARCA2 Percent degradation @ 100 nM” value on SMARCA2 came to 99%.

As to `Cc1ncsc1-c1ccc([C@H](C)NC(=O)[C@@H]2C[C@@H](O)CN2C(=O)[C@@H](NC(=O)C(C)C2CCN(c3cc(-c4cccc(F)c4O)nnc3N)CC2)C(C)(C)C)cc1` (single isomer, unassigned) [Compound 84], the “SMARCA2 Percent degradation @ 100 nM” value at SMARCA2 was determined as 58%.

`CC(=O)O[C@@H]1C[C@@H](C(=O)N[C@@H](C)c2ccc(-c3scnc3C)cc2)N(C(=O)[C@@H](NC(=O)CN2CCN(c3cc(-c4ccccc4O)nnc3N)CC2)C(C)(C)C)C1` [Compound 47, (3R,5S)-1-((S)-2-(2-(4-(3-amino-6-(2-hydroxyphenyl)pyridazin-4-yl)piperazin-1-yl)acetamido)-3,3-dimethylbutanoyl)-5-(((S)-1-(4-(4-methylthiazol-5-yl)phenyl)ethyl)carbamoyl)pyrrolidin-3-yl acetate]: the “SMARCA4 Percent degradation @ 100 nM” value on SMARCA4 came to 87%. In addition, the “SMARCA2 Percent degradation @ 100 nM” value on SMARCA2 was found to be 87%.

Take `Cc1ncsc1-c1ccc([C@H](C)NC(=O)[C@@H]2C[C@@H](O)CN2C(=O)[C@@H](NC(=O)C(C)N2CCN(c3cc(-c4ccccc4O)nnc3N)CC2)C(C)(C)C)cc1` (stereo partly drawn) [Compound 56, (2S,4R)-1-((2S)-2-(2-(4-(3-amino-6-(2-hydroxyphenyl)pyridazin-4-yl)piperazin-1-yl)propanamido)-3,3-dimethylbutanoyl)-4-hydroxy-N—((S)-1-(4-(4-methylthiazol-5-yl)phenyl)ethyl)pyrrolidine-2-carboxamide]: the half-inhibitory concentration (IC50) with NCI-H929 cells is under 1 µM. This molecule displayed an SMARCA4 percent degradation at 0.1 µM at SMARCA4 of 100%. Also, the “SMARCA2 Percent degradation @ 100 nM” value at SMARCA2 is recorded as 99%.

Take `Cc1ncsc1-c1ccc([C@H](C)NC(=O)[C@@H]2C[C@@H](O)CN2C(=O)[C@@H](NC(=O)CCCCCCC(=O)N2CCN(c3cc(-c4ccccc4O)nnc3N)CC2)C(C)(C)C)cc1` [Compound 37]: the IC50 in the assay with NCI-H929 cells is under 1 µM. For the same molecule, the “SMARCA2 Percent degradation @ 100 nM” value at SMARCA2 was determined as 96%.

Take `Cc1ncsc1-c1ccc([C@H](C)NC(=O)[C@@H]2C[C@@H](O)CN2C(=O)[C@@H](NC(=O)C(C)(C)N2CCN(c3cc(-c4ccccc4O)nnc3N)CC2)C(C)(C)C)cc1` [Compound 87]: in the assay with NCI-H929 cells, the concentration for half-maximal inhibition (IC50) was under 1 µM. The molecule further returned an SMARCA4 percent degradation at 0.1 µM at SMARCA4 of 93%. Further, the “SMARCA2 Percent degradation @ 100 nM” value on SMARCA2 worked out at 83%.

With `Cc1ncsc1-c1ccc([C@H](C)NC(=O)[C@@H]2C[C@@H](O)CN2C(=O)[C@@H](NC(=O)CCCCCCCCC(=O)N2CCN(c3cc(-c4ccccc4O)nnc3N)CC2)C(C)(C)C)cc1` [Compound 109], the IC50 in the assay on NCI-H929 cells was under 1 µM. The SMARCA4 percent degradation at 0.1 µM on SMARCA4 turned out to be 38%. Moreover, the “SMARCA2 Percent degradation @ 100 nM” value at SMARCA2 was determined as 100%.

With `Cc1ncsc1-c1ccc(CNC(=O)[C@@H]2C[C@@H](O)CN2C(=O)[C@@H](NC(=O)CN2CCN(c3cc(-c4ccccc4O)nnc3N)CC2)C(C)(C)C)cc1` [Compound 39], the concentration for half-maximal inhibition (IC50) in the assay on NCI-H929 cells is under 1 µM. Besides, the “SMARCA2 Percent degradation @ 100 nM” value at SMARCA2 stood at 97%.
